Source: article PMC12469503, “Exploring the Antimicrobial and Antiviral Properties of Cryptic Peptides from Human Fibrinogen” (International Journal of Molecular Sciences, 2025)
Where two headings read alike, the source gives them in different places. Ends that are not written are not given here.

Key:
[1] = system: Klebsiella pneumonia ATCC 700603; settings: ATCC 700603
[2] = system: Escherichia coli ATCC 25922
[3] = system: Pseudomonas aeruginosa PA14
[4] = system: Enterococcus faecalis ATCC 29212
[5] = system: Salmonella enteriditis 706 RIVM
[6] = system: Salmonella typhimurium ATCC 14028; experiment: MIC, broth microdilution; format: cell-based; settings: Table 1; broth microdilution, Nutrient Broth 0.5×, overnight 37 °C; minimum of three independent experiments
Description: MIC values were determined on Gram-positive and Gram-negative bacteria by the broth microdilution method for antimicrobial peptides previously described [33, 89] with minor modifications.
Bacterial strains were grown in Luria-Bertani (LB) medium overnight at 37 °C and then diluted in Nutrient Broth at a final concentration of ~5 × 10^5 CFU/mL per well. Twofold serial dilutions of peptides were carried out in the test wells to obtain concentrations ranging from 50 μM to 0.05 μM. Plates were incubated overnight at 37 °C.
MIC value was defined as the lowest concentration at which growth was inhibited. Three independent experiments were performed for each MIC value.

P. aeruginosa PAO1 = settings: PAO1, 16 h
Description: Plates were incubated 16 h at 37 °C. FIC index was calculated as follows: FICA + FICB, where FICA = MIC of drug A in combination/MIC of drug A alone, and FICB = MIC of drug B in combination/MIC of drug B alone.

[7] = system: Staphylococcus aureus ATCC 6538P; settings: ATCC 6538
[8] = system: Pseudomonas aeruginosa PAO1; settings: PAO1
[9] = system: Acinetobacter baumanii ATCC 17878
[10] = system: Pseudomonas aeruginosa RP73 (clinical isolate)
[11] = system: P. aeruginosa PAO1 biofilm; experiment: Antibiofilm detachment assay, confocal microscopy; settings: peptide 20 µM on 24 h pre-formed biofilm, further 24 h, Live/Dead BacLight, three independent experiments
[12] = system: Pseudomonas aeruginosa PAO1; settings: for MBC: PAO1; for MBC/MIC: Table 2, Pseudomonas aeruginosa PAO1
[13] = system: Staphylococcus aureus ATCC 6538P; settings: for MBC: ATCC 6538; for MBC/MIC: Table 2, Staphylococcus aureus ATCC 6538P
[14] = system: P. aeruginosa PAO1 biofilm; experiment: Antibiofilm attachment assay, confocal microscopy; settings: peptide 20 µM added with bacteria, stained after 4 h, Live/Dead BacLight, three independent experiments, t-test vs control
[15] = format: physicochemical
Description: The six peptides were produced in the recombinant form by using a previously described strategy that exploit the frog protein onconase (ONC) as a carrier to drive the peptide to inclusion bodies. The fusion proteins were expressed in Escherichia coli strain BL21DE3, using the pET22b(+) vector and named: ONC-DCless-H6-(P)FIBα-GVV27, ONC-DCless-H6-(P)FIBα-SFR22, ONC-DCless-H6-(P)FIBβ-GVV28, ONC-DCless-H6-(P)FIBβ-NWK23, ONC-DCless-H6-(P)FIBγ-GII30, ONC-DCless-H6-(P)FIBγ-TWK25 (nucleotide and amino acid sequences are reported in Supplementary Figure S1). […] Peptides were released by hydrolysis of an acidic labile “Asp-Pro” sequence leading to recombinant peptides endowed with an additional Pro residue at the N-terminus. Thus, the recombinant forms of these peptides are herein named (P)FIBα-GVV27, (P)FIBα-SFR22, (P)FIBβ-GVV28, (P)FIBβ-NWK23, (P)FIBγ-GII30, (P)FIBγ-TWK25. Hydrolysis efficiencies of 95% were estimated for all the recombinant proteins (Supplementary Figure S3). To purify the recombinant peptides from the hydrolysis mixtures, the carrier and the uncleaved fusion protein were selectively precipitated by increasing the pH to 7 exploiting the fact that ONC is insoluble at pH higher than 5, whereas most AMPs are soluble also at neutral pH. […] Therefore, purification of (P)FIBα-SFR22, (P)FIBα-GVV27, (P)FIBβ-NWK23 and (P)FIBγ-TWK25 was first performed by selective precipitation, to remove the carrier and the uncleaved fusion protein, followed by Reverse Phase High-Performance Liquid Chromatography (RP-HPLC) on a C18 column, whereas purification of (P)FIBβ-GVV28 and (P)FIBγ-GII30 was performed directly by RP-HPLC omitting the selective precipitation step. Final yields of all recombinant peptides ranged from approximately 6 to 12 mg per liter of LB culture. Peptide purity, as determined by RP-HPLC, typically varied between 95% and 99% (Supplementary Figure S4).
Peptides (P)FIBα-GVV27, (P)FIBα-SFR22, (P)FIBβ-NWK23 and (P)FIBγ-TWK25 were separated from the carrier and the uncleaved fusion proteins as previously described. The hydrolysis mixture was neutralized to pH 7–7.2 by adding 1 M NH3 and incubated for 1 h at 25 °C under nitrogen atmosphere in a water bath. […] Supernatant and insoluble fraction were analyzed by SDS-PAGE. Concentration of the peptide into the soluble fraction was determined by spectrophotometric analyses using extinction coefficients (Supplementary Table S1) calculated by the ProtParam tool. After the selective precipitation step, purification of the peptide was performed by RP-HPLC. The linear gradients used are listed in Supplementary Table S2. Purification of (P)FIBβ-GVV28 and (P)FIBγ-GII30 was performed directly by RP-HPLC, omitting the selective precipitation step. Purified peptides were lyophilized and dissolved in deionized water. Samples were stored at −80 °C under nitrogen atmosphere. Purity of peptides was evaluated by RP-HPLC on Europa Protein 300 C18 column (5 μm, 25 × 1) using the linear gradients listed in Supplementary Table S2. The identity of the peptides was confirmed by mass spectrometry.

HSV-1 = settings: Vero cells
HCoV-229E = settings: Vero cells; for antiviral activity against HCoV-229E: co-treatment assay, from 50 μM peptide
Sheep Red Blood Cells [16] = system: Sheep Red Blood Cells
Description: (§1) To assess the safety profile of the FIB-derived peptides, their hemolytic activity was evaluated by measuring the release of hemoglobin from sheep red blood cells after 1-h incubation with increasing peptide concentrations.
(§2) Briefly, Sheep Red Blood Cells were diluted in PBS 1× to reach a final concentration of 2%. Aliquots of diluted erythrocytes (100 μL) were added to each peptide solution (0–100 μM; 100 μL) in 96-well microtiter plates, and the mixture was incubated for 30 min under shaking (3000 rpm) at 37 °C. Following the incubation, a 3 min centrifugation at 4 °C was performed, and 50 µL of the supernatant from each sample were transferred to a 96 well plate. […] Hemolysis percentage was calculated by comparing samples to controls containing PBS (negative control) and 1% SDS (v/v) in PBS solution (positive control, inducing complete lysis). Hemolysis%=(Abs405 nm peptide−Abs405 nm negative control)/(Abs405 nm positive control−Abs405 nm negative control)×100.

Sheep Red Blood Cells [17] = experiment: Hemolysis assay; settings: read-out: IC50 (concentration required to induce 50% hemolysis), peptide 0.78–100 µM, 37 °C, absorbance 405 nm, 1% SDS positive control, triplicate
Description: as §1, §2

[18] = Table 1, broth microdilution, Nutrient Broth 0.5×, ~5 × 10^5 CFU/mL, overnight 37 °C, minimum of three independent experiments
[19] = Table 1, broth microdilution, Nutrient Broth 0.5×, overnight 37 °C, minimum of three independent experiments
[20] = peptide 1 h before infection or 1 h after infection

Substance	MIC K. pne. [1] [µM]	MIC E. coli [2, 18] [µM]	MIC PA14 [3, 19] [µM]	MIC E. fae. [4, 19] [µM]	MIC S. ent. [5] [µM]	MIC S. typ. [6] [µM]	MIC S. aur. [7] [µM]	MIC PAO1 [8] [µM]	MIC A. bau. [9, 19] [µM]	MIC RP73 ([10]; RP73 (clinical isolate)) [µM]	SYTO 9 / PI signal, detachment assay [11]	MBC [12] [µM]	MBC/MIC [12]	MIC E. coli ([2]; ATCC 25922) [µM]	MIC PA14 ([3]; PA14) [µM]	MBC [13] [µM]	MBC/MIC [13]	fluorescence signal of SYTO 9 (live cells), attachment assay [14]	solubility / aggregation at pH 7 [15]	antiviral activity against HCoV-229E (HCoV-229E)	also measured
GIIWATWKTRWYSMKKTTMKIIPFNRLTIG [FIBγ-GII30]	12.5	6.25	6.25	6.25	12.5	6.25	6.25	6.25	6.25	3.12	–	–	–	–	–	–	–	–	–	–	FICI of peptide/tobramycin combinations (P. aeruginosa PAO1): 0.5–0.53
H-PGVVWMNWKGSWYSMRKMSMKIRPFFPQQ [(P)FIBβ-GVV28]	25	–	–	–	–	12.5	3.12	6.25	–	6.25	significantly reducing the SYTO 9 signal	6.25	1	6.25	6.25	3.12	1	significantly reduced	particularly prone to aggregation and precipitation	strong antiviral activity	MIC E. fae. ([4]; ATCC 29212): 6.25 µM; MIC S. ent. [5, 19]: 12.5 µM; MIC A. bau. ([9]; ATCC 17878): 6.25 µM; antiviral activity against HSV-1 in cell pre-treatment and post-infection treatment (HSV-1; [20]): appreciable antiviral activity; antiviral activity against HCoV-229E in cell pre-treatment and post-infection treatment (HCoV-229E; [20]): appreciable antiviral activity
H-PGVVWVSFRGADYSLRAVRMKIRPLVTQ [(P)FIBα-GVV27]	50	–	6.25	6.25	12.5	6.25	6.25	6.25	6.25	3.12	reduction of the SYTO 9 signal coupled with an increase of the PI signal	6.25	1	12.5	–	6.25	1	significantly reduced	soluble at pH 7	strong antiviral activity	–
H-PNWKGSWYSMRKMSMKIRPFFPQQ [(P)FIBβ-NWK23]	25	6.25	–	6.25	12.5	6.25	3.12	6.25	6.25	3.12	–	6.25	1	–	3.12	3.12	1	lower, not significant reduction	soluble at pH 7	absence of efficacy	–
H-PSFRGADYSLRAVRMKIRPLVTQ [(P)FIBα-SFR22]	>50	–	–	–	>50	25	12.5	12.5	–	6.25	–	12.5	1	25	12.5	12.5	1	did not cause any reduction	soluble at pH 7	–	release of hemoglobin at 100 µM (Sheep Red Blood Cells [16]): limited release of hemoglobin; MIC E. fae. ([4]; ATCC 29212): 6.25 µM; IC50 (Sheep Red Blood Cells [17]): > 100 µM; MIC A. bau. ([9]; ATCC 17878): 25 µM; antiviral activity against HSV-1 (HSV-1; co-treatment assay, from 50 μM peptide): no significant effect
H-PTWKTRWYSMKKTTMKIIPFNRLTIG [(P)FIBγ-TWK25]	6.25	3.12	3.12	3.12	–	3.12	1.56	3.12	3.12	–	significantly reducing the SYTO 9 signal	3.12	1	–	–	1.56	1	significantly reduced	soluble at pH 7	absence of efficacy	release of hemoglobin at 100 µM (Sheep Red Blood Cells [16]): limited release of hemoglobin; MIC S. ent. [5, 19]: 3.12 µM; IC50 (Sheep Red Blood Cells [17]): ~100 µM; MIC RP73 [10, 19]: 3.12 µM
